Data taken from patent publication US20140045779A1, “COMPOUNDS CONTAINING AN ALICYCLIE STRUCTURE AND ANTI-TUMOR APPLICATION” (priority 2011, published 2014).
≈ marks a conversion by molar mass, not a printed value. Where two headings read alike, the source gives them in different places.

Legend:
[1] = system: mouse ascites sarcoma S180; assay: Efficacy studies of anti-tumor in vivo, S180 sarcoma in Kunming mice; conditions: for Difference from the control group in S180 sarcoma growth: Kunming mice, S180, p<0.05; for Growth Inhibition of S180 sarcoma, inhibition rate: mouse, in vivo, ip
[2] = system: MCF7 cells (breast cancer cells); assay: In vitro anti-cancer cell experiment (MTT), MCF7; conditions: Homo sapiens
[3] = MCF7, 48 h, read-out: Growth Inhibition of cell line IC50, MCF7
[4] = MCF7, read-out: IC50, anti-proliferative effect on MCF7 cells

Molecule | Difference from the control group in S180 sarcoma growth [1] | IC50 [2, 3] [µg/mL] | IC50 [2, 4] [µg/mL] | Growth Inhibition of S180 sarcoma, inhibition rate [1] [%]
O=C(CN1C(=O)C2C3CC(O)C(O3)C2C1=O)NC12CC3CC(CN(C3)C1)C2 (stereo not shown) [Example 7, N-((1r,3r)-1-azaadamantan-3-yl)-2-(5-hydroxy-1,3-dioxohexahydro-1H-4,7-epoxyisoindol-2(3H)-yl)acetamide] | significant difference | – | – | –
O=C(CN1C(=O)c2ccc([N+](=O)[O-])cc2C1=O)NC12CC3CC(CN(C3)C1)C2 [Example 8, N-((1r,3r,5R,7S)-1-azaadamantan-3-yl)-2-(5-nitro-1,3-dioxoisoindolin-2-yl)acetamide] | significant difference | – | – | –
Nc1ccc2c(c1)C(=O)N(CC(=O)NC13CC4CC(CN(C4)C1)C3)C2=O [Example 9, N-((1r,3r,5R,7S)-1-azaadamantan-3-yl)-2-(5-amino-1,3-dioxoisoindolin-2-yl)acetamide] | significant difference | – | – | –
O=C(Cn1cnc(-c2ccccc2)c1-c1ccccc1)NC12CC3CC(CC(C3)C1)C2 [Example 11, N-((1s,3s)-adamantan-1-yl)-2-(4,5-diphenyl-1H-imidazol-1-yl)acetamide] | significant difference | – | – | –
O=C1C2CC3CC(C2)OC1C3 (stereo not shown) [Example 43, 2-oxaadamantan-4-one] | – | 44.2 (≈ 291 µM) | 44.2 (≈ 291 µM) | –
OC12CC3CC(CC(C3)O1)C2 [Example 47, 2-oxaadamantan-1-ol] | – | 56.3 (≈ 365 µM) | 56.3 (≈ 365 µM) | –
COc1cc(C23CN4CN(C2)CC(c2cc(OC)c(OC)c(OC)c2)(C4)C3=O)cc(OC)c1OC [Example 62, (1r,3r,5r,7r)-5,7-bis(3,4,5-trimethoxyphenyl)-1,3-diazaadamantan-6-one] | – | 6.94 (≈ 14.3 µM) | 6.94 (≈ 14.3 µM) | –
CCCCCNC12CN3CN(CN(C3)C1)C2 [Example 68, (1s,3s,5s)-N-pentyl-1,3,5-triazaadamantan-7-amine] | significant difference | 2.28 (≈ 10.2 µM) | 2.28 (≈ 10.2 µM) | –
COC(=O)C12C3CC4CC5C3CC(CC5C1(C(=O)OC)N4C)N2C [Example 107, dimethanol decahydro-2,8,4,6-(cyclobutyl[1,2,3,4]dimethyl) naphthalene-2,4,4a,6-dicarboxylate] | significant difference | – | – | –
(1R,3R,5S,7S,Z)-1-azaadamantan-4- one oxime [Example 55] | – | – | – | 32
(1R,3S,5R,7S,Z)-1-hydroxy-3-methyl-2- oxaadamantan-6-one oxime [Example 74] | – | – | – | 20
